# Test results as given in EPA's ToxValDB 9.5.
# Experiments:
# Mus musculus [1] = conditions: repeat dose other; oral
# Rattus norvegicus [2] = conditions: subchronic, oral, diet, Fischer 344, Hematology: Hct decrease, Hgb decrease, RBC decrease + Blood Chemistry: CPK increase + Absolute Organ Weight: Liver decrease + Relative …
# Rattus norvegicus [3] = conditions: M/F
# Homo sapiens = conditions: clinical; duration: 3.5 hours; inhalation; M; neurological
# Tatera sp. = conditions: intermediate; duration: 3 months; Inhalation; M/F; Mongolian; neurological
# Oryctolagus sp. [4] = system: Oryctolagus sp.
# Oryctolagus sp. [5] = conditions: subchronic; duration: 10 weeks; oral; drinking water; M; Dutch-belted; Endocrine
# Oryctolagus sp. [6] = conditions: for NOAEL: New Zealand
# Phasianus colchicus = conditions: oral
# Rattus norvegicus [7] = conditions: repeat dose other; oral
# Cavia porcellus = conditions: subchronic; duration: 90 days; oral; diet; M/F; Guinea Pig; lymphatic
# Monkey = conditions: developmental; duration: 16 months; oral; diet; M/F; Rhesus; developmental
# Mus musculus [8] = conditions: acute, duration: 1 days, oral
# Oryctolagus sp. [9] = conditions: duration: 7 days, oral, gavage, New Zealand
# Rattus norvegicus [10] = conditions: oral, gavage, Sprague-Dawley; for NOAEL: reproduction developmental
# Oryctolagus sp. [11] = assay: LD0; higher = less toxic; conditions: acute; dermal; occlusive; New Zealand
# Cricetulus sp. = conditions: subchronic; duration: 13 weeks; inhalation; M/F; Hamster; increased hemolysis, abnormal rbc morphology, and increased spleen weight
# Mus musculus [12] = conditions: subchronic, inhalation
# Canidae [13] = conditions: chronic, duration: 1 years, oral, diet, Dog Other, Cardiac toxicity and moderate-to-severe dilation of the right atrium
# Sus scrofa = conditions: short-term; duration: 19 days; oral; diet; F; Swedish Landrace/Large Yorkshire cross; reproductive
# Rattus norvegicus [14] = conditions: chronic; duration: 2 years; oral; diet; Whole body: Decreased weight gain
# Canidae [15] = conditions: chronic; duration: 52 weeks; oral; capsule; M/F; Beagle; hepatic
# Mus musculus [16] = conditions: chronic, oral, diet, B6C3F1
# Oryctolagus sp. [17] = system: Oryctolagus sp.; remark: listed apart in the source
# [18] = subchronic, duration: 13 weeks, inhalation, M, testicular effects
# [19] = duration: 12 weeks, Increased hemolysis, increased spleen weight, and impaired compensatory erythropoiesis
# [20] = duration: 13 weeks, M/F, increased hemolysis, abnormal rbc morphology, and increased spleen weight
# [21] = subchronic, duration: 13 weeks, inhalation, increased hemolysis, abnormal rbc morphology, and increased spleen weight
# [22] = chronic, duration: 2 years, oral, diet, reduced body weight gain
# [23] = developmental, oral, F, reduced stool quantity, food consumption and body weight gain hyperirritability (maternal effects)
structure (smiles),measurement,setting,value
"CC(Cl)(Cl)Cl [1,1,1-Trichloroethane]",NOAEL,Mus musculus [1],1000 mg/kg-day
same,NOEL,Rattus norvegicus [2]; F,310 mg/kg-day
same,NOEL,Rattus norvegicus [2]; M/F,480 mg/kg-day
same,NOAEL,"Rattus norvegicus [3]; chronic, duration: 2 years, inhalation, liver histopathologic changes",8190 mg/m3
same,LOAEL,Homo sapiens,955 mg/m3
same,NOAEL,Tatera sp.,70 ppm
"ClCC(Br)CBr (stereo not given) [1,2-Dibromo-3-chloropropane]",LOAEL,Oryctolagus sp. [4]; [18],9.4 mg/m3
same,NOAEL,Oryctolagus sp. [4]; [18],0.94 mg/m3
same,NOAEL,Oryctolagus sp. [5],0.7 mg/kg-day
same,NOAEL,"Oryctolagus sp. [6]; chronic, duration: 14 weeks, inhalation, M, reproductive",0.967 mg/m3
same,LOAEL,"Oryctolagus sp. [6]; subchronic, duration: 10 weeks, oral, drinking water, M, Dutch belted, reproductive",1.88 mg/kg-day
"Clc1cc2c(cc1Cl)Oc1cc(Cl)c(Cl)cc1O2 [2,3,7,8-Tetrachlorodibenzo-p-dioxin]",LOAEL,Phasianus colchicus,0.00014 mg/kg-day
same,NOAEL,Phasianus colchicus,1.4e-05 mg/kg-day
same,LOAEL,Rattus norvegicus [7],1e-05 mg/kg-day
same,NOAEL,Rattus norvegicus [7],1e-06 mg/kg-day
same,NOAEL,Cavia porcellus,7e-07 mg/kg-day
same,LOAEL,Monkey,1.2e-07 mg/kg-day
same,NOAEL,"Mus musculus [8]; gavage, F, B6C3F1, immunological",5e-06 mg/kg-day
Nc1ccc([N+](=O)[O-])cc1 [4-Nitrobenzenamine],NOAEL,Oryctolagus sp. [9]; developmental,125 mg/kg-day
same,NOAEL,"Oryctolagus sp. [9]; reproduction developmental, generation: F1",125 mg/kg-day
same,LD50,Rattus norvegicus [10]; acute,1400 mg/kg
same,NOAEL,Rattus norvegicus [10]; duration: 90 days,< 3 mg/kg-day
same,NOAEL,"Rattus norvegicus [10]; duration: 167 days, generation: F0",1.5 mg/kg-day
same,NOAEL,"Rattus norvegicus [10]; duration: 167 days, generation: F1",9000 mg/kg-day
same,LD0,Oryctolagus sp. [11],> 7940 mg/kg
[AsH3] [Arsine],LOAEL,Cricetulus sp.,1.6 mg/m3
same,NOAEL,Cricetulus sp.,0.08 mg/m3
same,LOAEL,Mus musculus [12]; [19],1.6 mg/m3
same,NOAEL,Mus musculus [12]; [19],0.08 mg/m3
same,LOAEL,Mus musculus [12]; [20],1.6 mg/m3
same,NOAEL,Mus musculus [12]; [20],0.08 mg/m3
same,LOAEL,Rattus norvegicus [3]; [21],1.6 mg/m3
same,NOAEL,Rattus norvegicus [3]; [21],0.08 mg/m3
CCNc1nc(Cl)nc(NC(C)C)n1 [Atrazine],LOAEL,Canidae [13]; F,33.8 mg/kg-day
same,NOAEL,Canidae [13]; M/F,4.97 mg/kg-day
same,LOAEL,Canidae [13]; M,33.6 mg/kg-day
same,LOAEL,Rattus norvegicus [3]; [22],25 mg/kg-day
same,NOAEL,Rattus norvegicus [3]; [22],3.5 mg/kg-day
same,NOAEL,"Oryctolagus sp. [6]; reproduction developmental, duration: 12 days, oral, gavage, F, body weight",1 mg/kg-day
same,LOAEL,Sus scrofa,1 mg/kg-day
same,NOEL,Rattus norvegicus [14],3.5 mg/kg-day
COC(=O)c1cc(Oc2ccc(Cl)cc2Cl)ccc1[N+](=O)[O-] [Bifenox],NOAEL,Canidae [15],145 mg/kg-day
same,LOAEL,"Mus musculus [16]; duration: 2 years, M/F, Urinary",7 mg/kg-day
Cc1ccc([N+](=O)[O-])cc1N [C.I. Azoic Diazo Component 12],LOAEL,"Mus musculus [16]; duration: 78 weeks, F",207 mg/kg-day
S=C=S [Carbon disulfide],NOEL,"Oryctolagus sp. [4]; developmental, oral, M/F, fetal toxicity/ malformations",11 mg/kg-day
same,LOAEL,"Mus musculus [8]; M, DD, hepatic",3 mg/kg-day
same,NOEL,"Oryctolagus sp. [17]; developmental, inhalation, intermittent, Fetus: Toxicity",11 mg/kg-day
CCOC(=O)C(O)(c1ccc(Cl)cc1)c1ccc(Cl)cc1 [Chlorobenzilate],LEL,Oryctolagus sp. [4]; [23],20 mg/kg-day
same,NOEL,Oryctolagus sp. [4]; [23],5 mg/kg-day
same,NOEL,"Oryctolagus sp. [17]; short-term, duration: 13 days, oral, gavage, Gastrointestinal system: Decreased stool quantity + Nervous system: Hyperirritability + Whole body: Decreased food consumption + Whole body…",5 mg/kg-day
